This is an account of results in ChEMBL document CHEMBL1201862, “PubChem BioAssay data set” (2004).

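Five concentrations, 48 hours, 96-well plates. GI50 = concentration required for 50% inhibition of growth.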 Active and inactive are the calls of the source. Cut-off read from the data, not from the text of the source: active = GI50 up to about 1.1 µM and inactive = higher. Where a SMILES comes first, the peptide text is derived from it. The star is where a group is joined. Boc = CC(C)(C)OC(=O)*

As usually defined, the GI50 is the concentration at which growth is held to half of that of the control.

Test systems include NCI-H226; SNB-75; HCT-116; HL-60; K562; T47D; OVCAR-3; HCT-15; UACC-62; EKVX; 786-0; IGROV-1; SF-295; MDA-MB-435; OVCAR-5; CAKI-1; Malme-3M; MCF7.
Test in all cases: DTP human tumour cell line panel, 48 h

Consider `CN(C)/N=N/c1nc2c(c(=O)n(C)c(=O)n2C)n1CC1CO1` (stereo not drawn), for which the GI50 was 8.51 µM (inactive) in the assay on NCI-H226; 11.7 µM (inactive) in the assay on SNB-75; 11.7 µM (inactive) with HCT-116; 4 µM (inactive) in the assay with HL-60; 19.2 µM (inactive) in the assay on K562; 18.4 µM (inactive) in the assay on T47D. The GI50 was 15.8 µM (inactive) in the assay on OVCAR-3; 14.2 µM with HCT-15; 12.4 µM (inactive) with UACC-62; 22.4 µM (inactive) in the assay with EKVX; 16.6 µM (inactive) in the assay on 786-0; 11.7 µM (inactive) in the assay with IGROV-1. Besides, the GI50 is 17 µM (inactive) in the assay on SF-295; 16.7 µM (inactive) in the assay with MDA-MB-435; 32 µM (inactive) in the assay with OVCAR-5; 13.9 µM (inactive) with CAKI-1; 9.18 µM (inactive) in the assay with Malme-3M; 5.38 µM (inactive) in the assay on MCF7.
`COC(=O)[C@@H]1[C@H]2CC[C@]3(C)[C@@H](OC(C)=O)CC[C@H]3[C@@H]2CC[C@H]1C1(C)SCCS1`: the GI50 in the assay on NCI-H226 was 23.9 µM (inactive); in the assay with SNB-75, 37.2 µM (inactive); in the assay with HCT-116, 19.6 µM (inactive); in the assay on HL-60, 18.2 µM (inactive); in the assay on K562 it was 36.1 µM (inactive); in the assay with T47D, 20.4 µM (inactive). The GI50 with OVCAR-3 is 33.1 µM (inactive); with HCT-15 it was 32 µM; in the assay on UACC-62 it was 28.2 µM (inactive); in the assay with EKVX, 25.1 µM (inactive); in the assay on 786-0, 22.7 µM (inactive); in the assay with IGROV-1, 49.2 µM (inactive). The GI50 was 24.8 µM (inactive) in the assay with SF-295; 16.3 µM (inactive) in the assay with MDA-MB-435; 22.8 µM (inactive) in the assay with OVCAR-5; 41.6 µM (inactive) in the assay with CAKI-1; 18.9 µM (inactive) with Malme-3M; 27 µM (inactive) with MCF7.
For the compound `CC(C)(C)c1ccc2c(c1)C#Cc1cc3c(cc1OCCCO2)C#Cc1cc(C(C)(C)C)ccc1OCCCO3`, the GI50 in the assay with HCT-116 is > 100 µM (inactive); in the assay on HL-60, > 100 µM (inactive); with K562, > 100 µM (inactive); with T47D, > 100 µM (inactive); in the assay with OVCAR-3 it was > 100 µM (inactive); with HCT-15 it was 2.45 µM. Also, the GI50 in the assay on UACC-62, with EKVX, in the assay on 786-0, in the assay with IGROV-1, in the assay on SF-295 and in the assay on MDA-MB-435 was > 100 µM (inactive) each time. Further, the GI50 in the assay on OVCAR-5, in the assay on CAKI-1, in the assay on Malme-3M and with MCF7 was > 100 µM (inactive) each time.
In the case of `O=c1[nH]c(=O)n([C@H]2C[C@H](O)[C@@H](CO)O2)cc1Br` [BROXURIDINE], the GI50 is > 100 µM (inactive) in the assay on NCI-H226; > 100 µM (inactive) in the assay on SNB-75; > 94 µM (inactive) in the assay with HCT-116; > 72.4 µM (inactive) with K562; > 100 µM (inactive) in the assay on T47D; 25.9 µM (inactive) with OVCAR-3. The GI50 is above 63.5 µM in the assay on HCT-15; > 100 µM (inactive) in the assay with UACC-62; > 100 µM (inactive) in the assay with EKVX; > 100 µM (inactive) in the assay with 786-0; > 59.2 µM (inactive) with IGROV-1; > 100 µM (inactive) in the assay with SF-295. The GI50 in the assay with MDA-MB-435 is > 100 µM (inactive); in the assay with OVCAR-5 it was > 100 µM (inactive); in the assay with CAKI-1 it was > 100 µM (inactive); in the assay on Malme-3M, > 85.9 µM (inactive); in the assay on MCF7 it was 17.7 µM (inactive).
As for `CSc1nc2ccccc2c(=O)n1/N=C1\C(=O)N(CN2CCOCC2)c2ccc(Cl)cc21`, the GI50 in the assay with NCI-H226 was 53.3 µM (inactive); with SNB-75, 41.5 µM (inactive); with HCT-116, 22.4 µM (inactive); in the assay on HL-60, 8.61 µM (inactive); with K562 it was 5.77 µM (inactive); with T47D, 16.5 µM (inactive). Further, the GI50 in the assay with OVCAR-3 was 54.5 µM (inactive); in the assay with HCT-15, 22.9 µM; in the assay on UACC-62, 6.68 µM (inactive); in the assay with EKVX, 2.6 µM (inactive); with 786-0, 34.8 µM (inactive); with IGROV-1 it was 16.8 µM (inactive). Further, the GI50 in the assay on SF-295 is 46.1 µM (inactive); in the assay with MDA-MB-435, 28.4 µM (inactive); with OVCAR-5, 26 µM (inactive); in the assay on CAKI-1, 25.5 µM (inactive); with Malme-3M, > 100 µM (inactive); with MCF7, 19.6 µM (inactive).
As to `COC(=O)CNC(=O)C(Cc1ccccc1)NC(=O)C(CCSC)NC(=O)C(Cc1ccc(O)cc1)NC(=O)OC(C)(C)C` (stereo not drawn) (Boc-YMFG-OMe; configuration not given here), the GI50 is > 100 µM (inactive) in the assay with NCI-H226; > 100 µM (inactive) with SNB-75; 54.3 µM (inactive) in the assay on HCT-116; 53 µM (inactive) in the assay on HL-60; 49.8 µM (inactive) in the assay on K562; 32.4 µM (inactive) in the assay with T47D. Moreover, the GI50 was 16.9 µM (inactive) with OVCAR-3; above 100 µM with HCT-15; 30.1 µM (inactive) in the assay with UACC-62; > 100 µM (inactive) with 786-0; 62.7 µM (inactive) in the assay on IGROV-1; > 100 µM (inactive) in the assay with SF-295. Besides, the GI50 with MDA-MB-435 is > 100 µM (inactive); in the assay with OVCAR-5, > 100 µM (inactive); in the assay on CAKI-1, > 100 µM (inactive); in the assay with Malme-3M, > 100 µM (inactive); in the assay on MCF7, 41.8 µM (inactive).
Turning to `COc1ccc(/C=C2\N=C3Sc4c([nH]cnc4=O)N3C2=O)cc1`, the GI50 in the assay on NCI-H226, with SNB-75, in the assay on HCT-116, in the assay with HL-60, with K562 and in the assay on T47D was > 100 µM (inactive) throughout. Besides, the GI50 in the assay with OVCAR-3 is > 100 µM (inactive); in the assay with HCT-15 it was above 100 µM; in the assay with EKVX it was 78.9 µM (inactive); in the assay with 786-0 it was > 100 µM (inactive); with IGROV-1, > 100 µM (inactive); with SF-295, > 100 µM (inactive). The GI50 in the assay with MDA-MB-435, in the assay on OVCAR-5, with CAKI-1, with Malme-3M and in the assay with MCF7 was > 100 µM (inactive) throughout.
As for `CC(C#N)Nc1ccc(Oc2ccc(C(C)(C)c3ccc(Oc4ccc(NC(C)C#N)cc4)cc3)cc2)cc1` (stereo not drawn), the GI50 with NCI-H226 is > 100 µM (inactive); in the assay with SNB-75, 92.5 µM (inactive); in the assay on HCT-116 it was 30.7 µM (inactive); in the assay with K562 it was > 100 µM (inactive); in the assay with T47D, 0.409 µM (active); in the assay on OVCAR-3 it was > 100 µM (inactive). In addition, the GI50 in the assay on HCT-15 was above 100 µM; with UACC-62 it was > 100 µM (inactive); with EKVX, > 100 µM (inactive); with 786-0, > 100 µM (inactive); with IGROV-1, > 100 µM (inactive); in the assay with SF-295, > 100 µM (inactive). In addition, the GI50 in the assay with MDA-MB-435 is > 100 µM (inactive); in the assay on OVCAR-5, > 100 µM (inactive); in the assay with CAKI-1, > 100 µM (inactive); in the assay on Malme-3M, > 100 µM (inactive); in the assay with MCF7, 6.25 µM (inactive).
